Source: patent US8491897B2, “Treatment of neuropathic pain using anti-thrombospondin antibodies” (The Board of Trustees of the Leland Stanford Junior …, priority 2007, dated 2013)
Entries after “also recorded” stand apart in the source; their conditions may differ.

Test system: barrel cortex
Experiment: Lesion-induced barrel cortex plasticity assay in neonatal mice
Assay type: in vivo
Source text: Understanding how the brain remodels its neuronal networks has been a major goal of neurobiology, as these processes underlie learning, memory and recovery from injury. Is astrocyte-induced synapse formation involved in remodeling neural circuits during development? To explore this question a well-established developmental plasticity paradigm, ‘the barrel cortex plasticity’ assay, was used. The nerves that innervate the major whiskers on the snout of the mouse project to the brain as a topographically ordered “somatotopic” map where afferent axons and target cells form ordered modules that recapitulate the structural organization seen on the whisker pad (Erzurumlu et al., The Anatomical Record 288:121-134, 2006). First, neurons of the trigeminal nerve innervate the mystacial vibrissae (whiskers) and send projections […]. These projections then form synapses at the brainstem (barrelettes) and their afferents then project and synapse at the thalamus (barreloids). […]
Two groups of neonatal mice were injected either with GBP or an equal volume of saline daily starting at P0 until P7. […] The mice were then sacrificed at P7 and their barrel structure corresponding to both the unlesioned “control” hemisphere and the lesioned hemisphere were analyzed. […]

In the case of NCC1(CC(=O)O)CCCCC1 [Gabapentin, 1-(aminomethyl)cyclohexaneacetic acid], the “barrel formation on unlesioned control side” value (daily injection P0 to P7, listed as GBP) is reported as “typical barrels formed on the control side; also recorded: did not affect the barrel cortex formation” and the “proportion of injected mice with atypical/aberrant barrel cortex plasticity response” value (lesioned side, daily injection P0 to P7, C-row whisker lesion at P1) is reported as 50%.
